Test results reported in ChEMBL document CHEMBL1201862, “PubChem BioAssay data set” (2004).
Calls of active or inactive are those of the source.

Experiments:
[1] = test system: P388/ADR; assay: cells; assay type: functional; conditions: Mus musculus
[2] = test system: SN12K1; assay: cells; assay type: functional; conditions: Homo sapiens
[3] = test system: P388; assay: cells; assay type: functional; conditions: Mus musculus
[4] = HEp-2 cell cytotoxicity, dose response, cytotoxicity control for RSV inhibitor project, HTS (AID 2410); assay type: functional; conditions: human respiratory syncytial virus
[5] = biological target: Luciferin 4-monooxygenase (Photinus pyralis, UniProt P08659); assay: Counter Screen for Luciferase-based Assay Positives. [Related pubchem assays: 620, 618, 411 ]
[6] = test system: HT-1080; assay: cytotoxicity in HT1080 fibrosarcoma cells, cell-based, fluorescence readout (AID 620); assay type: functional; conditions: Homo sapiens
[7] = biological target: T1, Caspase-3 (Homo sapiens, UniProt P42574); assay type: functional
T1 sequence (P42574 whole entry): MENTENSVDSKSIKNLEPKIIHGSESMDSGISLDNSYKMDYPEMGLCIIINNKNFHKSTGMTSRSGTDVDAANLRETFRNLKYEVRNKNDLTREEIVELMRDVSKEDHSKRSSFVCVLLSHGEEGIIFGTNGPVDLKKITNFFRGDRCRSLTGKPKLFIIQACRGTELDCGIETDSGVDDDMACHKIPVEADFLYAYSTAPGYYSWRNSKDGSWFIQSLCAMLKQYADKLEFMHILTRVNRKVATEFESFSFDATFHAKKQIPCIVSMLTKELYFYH

[8] = biological target: T2, Sentrin-specific protease 7 (Homo sapiens, UniProt Q9BQF6); assay type: functional;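 note: Luminescence-based dose-response confirmation of ultra-high-throughput screening hits, measuring inhibition of SENP7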
T2 sequence (Q9BQF6 whole entry): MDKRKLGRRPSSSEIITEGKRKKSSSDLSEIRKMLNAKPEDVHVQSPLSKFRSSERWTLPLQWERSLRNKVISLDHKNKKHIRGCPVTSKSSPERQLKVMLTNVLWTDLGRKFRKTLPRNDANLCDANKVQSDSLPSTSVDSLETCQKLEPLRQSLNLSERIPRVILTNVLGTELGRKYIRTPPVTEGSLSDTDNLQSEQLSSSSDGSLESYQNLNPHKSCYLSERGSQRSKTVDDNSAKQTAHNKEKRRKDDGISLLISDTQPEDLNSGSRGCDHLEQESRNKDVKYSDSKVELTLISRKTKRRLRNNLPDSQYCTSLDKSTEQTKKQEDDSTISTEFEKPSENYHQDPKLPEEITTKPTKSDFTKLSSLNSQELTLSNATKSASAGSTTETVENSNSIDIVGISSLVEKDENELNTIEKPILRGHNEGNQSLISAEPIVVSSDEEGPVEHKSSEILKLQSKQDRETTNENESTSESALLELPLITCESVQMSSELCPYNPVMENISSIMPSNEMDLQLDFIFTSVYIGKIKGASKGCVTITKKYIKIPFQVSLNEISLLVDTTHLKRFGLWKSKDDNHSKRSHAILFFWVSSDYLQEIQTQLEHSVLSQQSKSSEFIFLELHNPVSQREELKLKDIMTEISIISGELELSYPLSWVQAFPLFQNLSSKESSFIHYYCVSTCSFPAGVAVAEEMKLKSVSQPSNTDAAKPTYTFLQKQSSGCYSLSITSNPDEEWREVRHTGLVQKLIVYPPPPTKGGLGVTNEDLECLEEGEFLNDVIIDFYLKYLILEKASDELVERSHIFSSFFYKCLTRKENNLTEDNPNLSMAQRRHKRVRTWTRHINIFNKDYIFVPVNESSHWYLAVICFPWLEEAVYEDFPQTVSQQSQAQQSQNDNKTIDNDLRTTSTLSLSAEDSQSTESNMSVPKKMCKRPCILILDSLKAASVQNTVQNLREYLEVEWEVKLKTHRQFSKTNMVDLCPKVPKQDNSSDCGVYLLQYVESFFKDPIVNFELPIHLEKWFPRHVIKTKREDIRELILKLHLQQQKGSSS

[9] = biological target: T3, Sentrin-specific protease 6 (Homo sapiens, UniProt Q9GZR1); assay type: functional
T3 sequence (Q9GZR1 whole entry): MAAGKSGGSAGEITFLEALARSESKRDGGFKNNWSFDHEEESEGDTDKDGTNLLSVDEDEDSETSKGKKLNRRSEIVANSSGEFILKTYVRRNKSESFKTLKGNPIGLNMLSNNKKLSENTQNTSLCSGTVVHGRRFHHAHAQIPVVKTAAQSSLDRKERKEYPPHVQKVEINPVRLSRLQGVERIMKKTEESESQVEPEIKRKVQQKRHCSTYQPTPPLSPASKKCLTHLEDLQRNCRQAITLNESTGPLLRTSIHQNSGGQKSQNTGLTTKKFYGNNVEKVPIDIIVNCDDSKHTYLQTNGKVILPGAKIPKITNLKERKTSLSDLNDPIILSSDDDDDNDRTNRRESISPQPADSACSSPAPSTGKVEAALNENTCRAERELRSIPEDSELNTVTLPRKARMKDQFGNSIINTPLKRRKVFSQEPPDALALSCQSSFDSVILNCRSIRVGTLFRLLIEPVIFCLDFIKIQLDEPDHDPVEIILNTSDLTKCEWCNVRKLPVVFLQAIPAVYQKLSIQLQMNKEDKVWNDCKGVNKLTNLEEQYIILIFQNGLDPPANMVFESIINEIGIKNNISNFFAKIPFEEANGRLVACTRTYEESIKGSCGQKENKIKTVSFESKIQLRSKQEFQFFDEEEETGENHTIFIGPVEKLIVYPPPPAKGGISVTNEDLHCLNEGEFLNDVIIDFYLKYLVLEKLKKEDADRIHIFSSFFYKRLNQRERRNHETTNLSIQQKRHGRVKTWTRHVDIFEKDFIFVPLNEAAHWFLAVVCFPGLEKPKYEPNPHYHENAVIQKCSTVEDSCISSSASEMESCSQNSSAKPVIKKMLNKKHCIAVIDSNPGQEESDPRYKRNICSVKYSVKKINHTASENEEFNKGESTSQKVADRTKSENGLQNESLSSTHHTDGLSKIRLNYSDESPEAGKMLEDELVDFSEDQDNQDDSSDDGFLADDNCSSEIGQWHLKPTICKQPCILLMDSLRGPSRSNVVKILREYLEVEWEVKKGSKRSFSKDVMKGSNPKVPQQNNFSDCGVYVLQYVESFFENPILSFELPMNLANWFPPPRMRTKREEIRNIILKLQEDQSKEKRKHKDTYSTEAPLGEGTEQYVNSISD

[10] = biological target: T4, Sentrin-specific protease 8 (Homo sapiens, UniProt Q96LD8); assay type: functional;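 note: luminescence read-out of SENP8 inhibition, dose-response confirmation following an ultra-high-throughput screen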
T4 sequence (Q96LD8 whole entry): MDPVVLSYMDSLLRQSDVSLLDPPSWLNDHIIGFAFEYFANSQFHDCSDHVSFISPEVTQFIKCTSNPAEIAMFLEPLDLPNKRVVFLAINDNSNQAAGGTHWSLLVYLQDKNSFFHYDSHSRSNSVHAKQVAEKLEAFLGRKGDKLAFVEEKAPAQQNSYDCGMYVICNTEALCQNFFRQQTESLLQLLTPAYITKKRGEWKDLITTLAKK

[11] = test system: HeLa; assay: HeLa cell cytotoxicity, dose response, cytotoxicity control for MITF activator project, CellTiter-Glo luminescence, cherry-pick samples (AID 540259); assay type: functional, cell-based; conditions: Homo sapiens
[12] = biological target: Cytochrome P450 3A4 (Homo sapiens, UniProt P08684);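 note: CYP3A4 tested as one member of a cytochrome P450 panel screen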
[13] = biological target: Beta-galactosidase (Escherichia coli, UniProt Q8VNN2); assay: PubChem AID 485352; assay type: functional
[14] = biological target: T5, Type-1 angiotensin II receptor (Homo sapiens, UniProt P30556); assay: AT1 receptor antagonists, dose response, selectivity assay for APJ receptor antagonist project, cell-based, uHTS hits (AID 463214); assay type: functional;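 note: antagonist potency against angiotensin II stimulated AT1 response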
T5 sequence (P30556 whole entry): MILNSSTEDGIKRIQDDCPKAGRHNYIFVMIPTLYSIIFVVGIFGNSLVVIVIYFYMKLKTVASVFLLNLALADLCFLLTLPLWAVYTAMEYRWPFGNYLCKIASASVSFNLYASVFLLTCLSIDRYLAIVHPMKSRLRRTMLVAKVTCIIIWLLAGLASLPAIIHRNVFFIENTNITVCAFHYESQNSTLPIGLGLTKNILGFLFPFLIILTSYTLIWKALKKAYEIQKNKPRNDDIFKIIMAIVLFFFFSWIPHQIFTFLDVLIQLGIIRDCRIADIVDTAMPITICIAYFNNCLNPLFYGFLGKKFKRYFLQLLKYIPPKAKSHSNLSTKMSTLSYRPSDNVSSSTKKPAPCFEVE

[15] = biological target: Beta-2 adrenergic receptor (Homo sapiens, UniProt P07550); assay: beta2AR agonists driving receptor internalization, dose response, cell-based, FAP fluorogen, flow cytometry, cherry pick 1 (AID 588763); assay type: functional
[16] = test system: Streptococcus sp. 'group A'; assay: growth inhibition of control SK(-) GAS strain, dose response, counter-screen for streptokinase expression inhibitor project, luminescence, kanamycin, BacTiterGlo, confirmation (AID 1900); assay type: functional, organism-based
[17] = test system: Streptococcus; assay: Group A Streptococcus viability loss, dose response, counter-screen for streptokinase expression inhibitor project, luminescence, BacTiterGlo (AID 1915); assay type: functional, organism-based;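 note: potency for reduction of bacterial viability or growth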
[18] = inhibitors of HIV Env-driven cell fusion, dose response, cherry-pick (AID 652057); assay type: functional, cell-based
[19] = ZM109 Env clade C HIV-1 fusion inhibitors, dose response, HeLa effector, CEM target cells, luciferase, cherry-pick (AID 652058); assay type: functional, cell-based
[20] = off-target signal loss in HeLa-CEM21 co-culture – HeLa F-luc CTL cells, cherry-picked, counter-screen for HIV-1 Env fusion inhibitor project, dose response (AID 652040); assay type: functional, cell-based;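 note: potency for signal decrease marking cytotoxic or nonspecific inhibition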
[21] = biological target: T4, Sentrin-specific protease 8; assay: SENP8 protease inhibitors, SAR follow-up, biochemical, luminescence (AID 504501); assay type: functional
[22] = biological target: T1, Caspase-3; assay: SAR Analysis of small molecule inhibitors of Sentrin-specific proteases (SENPs) using a Caspase-3 Selectivity assay. [Related pubchem assays (depositor defined):AID2540, AID2599, AID434973, AID489001]; assay type: functional
[23] = biological target: T3, Sentrin-specific protease 6; assay: SAR Analysis of small molecule inhibitors of Sentrin-specific protease 6 (SENP6) using a Luminescent assay. [Related pubchem assays (depositor defined):AID2582, AID2599]; assay type: functional
[24] = biological target: T2, Sentrin-specific protease 7; assay: SENP7 protease inhibitors, SAR follow-up, biochemical, luminescence (AID 504497); assay type: functional

Beta-galactosidase, sequence (Q8VNN2 whole entry): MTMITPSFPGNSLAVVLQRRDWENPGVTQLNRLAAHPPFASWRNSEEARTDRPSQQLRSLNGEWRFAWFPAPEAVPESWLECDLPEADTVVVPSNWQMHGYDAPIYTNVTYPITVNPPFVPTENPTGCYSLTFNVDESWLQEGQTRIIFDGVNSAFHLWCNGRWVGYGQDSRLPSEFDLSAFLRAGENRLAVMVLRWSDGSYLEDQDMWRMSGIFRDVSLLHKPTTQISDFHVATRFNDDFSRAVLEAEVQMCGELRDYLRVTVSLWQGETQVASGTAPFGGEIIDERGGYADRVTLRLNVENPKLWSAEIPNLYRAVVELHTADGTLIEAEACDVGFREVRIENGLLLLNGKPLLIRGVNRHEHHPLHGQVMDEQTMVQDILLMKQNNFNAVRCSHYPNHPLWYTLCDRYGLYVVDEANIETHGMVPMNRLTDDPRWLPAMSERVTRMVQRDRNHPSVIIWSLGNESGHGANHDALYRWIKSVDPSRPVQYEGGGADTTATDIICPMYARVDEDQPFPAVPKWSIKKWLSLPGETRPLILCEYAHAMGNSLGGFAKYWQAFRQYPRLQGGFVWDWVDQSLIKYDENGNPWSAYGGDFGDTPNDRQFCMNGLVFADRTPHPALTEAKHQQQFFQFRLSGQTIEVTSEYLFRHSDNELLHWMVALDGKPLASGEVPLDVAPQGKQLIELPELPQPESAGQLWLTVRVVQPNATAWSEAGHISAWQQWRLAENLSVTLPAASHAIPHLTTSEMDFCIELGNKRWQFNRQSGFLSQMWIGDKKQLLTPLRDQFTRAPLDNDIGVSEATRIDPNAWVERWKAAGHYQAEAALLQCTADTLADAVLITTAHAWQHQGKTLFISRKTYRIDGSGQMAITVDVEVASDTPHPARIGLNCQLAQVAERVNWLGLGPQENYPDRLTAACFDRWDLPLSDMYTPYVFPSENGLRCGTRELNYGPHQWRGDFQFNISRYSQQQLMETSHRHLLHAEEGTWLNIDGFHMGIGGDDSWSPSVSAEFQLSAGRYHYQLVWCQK
Beta-2 adrenergic receptor, sequence (P07550 whole entry): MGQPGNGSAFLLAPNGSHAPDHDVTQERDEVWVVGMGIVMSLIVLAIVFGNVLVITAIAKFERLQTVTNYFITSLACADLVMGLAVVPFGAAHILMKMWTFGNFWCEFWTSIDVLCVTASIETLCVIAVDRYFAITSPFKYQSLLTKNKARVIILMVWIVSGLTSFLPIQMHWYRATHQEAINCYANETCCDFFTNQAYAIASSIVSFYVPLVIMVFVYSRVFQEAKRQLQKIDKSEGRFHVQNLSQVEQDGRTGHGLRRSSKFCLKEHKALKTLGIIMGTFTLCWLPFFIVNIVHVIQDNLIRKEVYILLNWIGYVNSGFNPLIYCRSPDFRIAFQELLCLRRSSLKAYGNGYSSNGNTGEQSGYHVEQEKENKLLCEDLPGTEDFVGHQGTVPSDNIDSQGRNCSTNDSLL
Cytochrome P450 3A4, sequence (P08684 whole entry): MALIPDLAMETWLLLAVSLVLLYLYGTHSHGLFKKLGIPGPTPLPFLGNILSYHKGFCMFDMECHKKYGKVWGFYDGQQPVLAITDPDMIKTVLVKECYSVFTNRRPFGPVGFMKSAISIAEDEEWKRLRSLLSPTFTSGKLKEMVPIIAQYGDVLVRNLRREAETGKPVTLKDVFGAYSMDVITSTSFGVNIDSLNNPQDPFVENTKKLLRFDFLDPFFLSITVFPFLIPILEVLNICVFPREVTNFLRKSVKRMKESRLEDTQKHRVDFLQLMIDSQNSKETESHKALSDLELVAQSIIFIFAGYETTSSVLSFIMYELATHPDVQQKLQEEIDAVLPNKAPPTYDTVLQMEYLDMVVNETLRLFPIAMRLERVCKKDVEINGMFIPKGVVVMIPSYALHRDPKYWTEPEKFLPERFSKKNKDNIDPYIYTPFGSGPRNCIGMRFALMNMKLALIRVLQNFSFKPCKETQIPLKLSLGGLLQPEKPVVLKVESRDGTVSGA
Luciferin 4-monooxygenase, sequence (P08659 whole entry): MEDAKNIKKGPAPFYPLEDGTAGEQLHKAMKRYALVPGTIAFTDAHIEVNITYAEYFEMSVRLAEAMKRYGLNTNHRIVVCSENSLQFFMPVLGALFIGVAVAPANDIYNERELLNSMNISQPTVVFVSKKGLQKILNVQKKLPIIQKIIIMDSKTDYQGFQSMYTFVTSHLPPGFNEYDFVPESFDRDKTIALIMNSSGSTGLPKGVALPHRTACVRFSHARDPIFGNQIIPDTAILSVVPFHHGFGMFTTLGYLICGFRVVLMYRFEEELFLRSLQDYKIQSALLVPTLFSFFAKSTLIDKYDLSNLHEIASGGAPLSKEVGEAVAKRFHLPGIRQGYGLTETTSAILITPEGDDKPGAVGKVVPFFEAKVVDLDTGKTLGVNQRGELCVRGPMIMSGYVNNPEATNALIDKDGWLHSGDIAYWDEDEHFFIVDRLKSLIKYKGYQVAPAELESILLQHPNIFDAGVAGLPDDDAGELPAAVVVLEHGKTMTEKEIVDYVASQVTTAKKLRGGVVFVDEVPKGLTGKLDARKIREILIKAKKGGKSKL

For `CCCSc1nc(COC(=O)NC)c(COC(=O)NC)n1C`, the GI50 [1] was 23.8 µM (inactive), the GI50 [2] was > 100 µM (inactive) and the GI50 [3] was 21.1 µM (inactive).
For `CCCC(=O)Nc1ccc(-c2nc3cc(C)ccc3o2)cc1`, the CC50 [4] was 26.7 µM (active), the EC50 [5] was 0.21 µM (active) and the EC50 [6] was > 50 µM (not active). For the same compound, the IC50 [7] was 23.5 µM (active), the IC50 [8] was 4.35 µM (active) and the IC50 [9] was 64.7 µM (active). The IC50 [10] was 45.2 µM (active).
With `CSc1ccc(CNc2ccc(Cl)cc2)cc1` the AC50 [11] was 56.4 µM (active) and the AC50 [12] was “inconclusive”.
For `O=C1N=c2ccc(Br)cc2=C1Nc1ccc(-c2nnc3n2CCCCC3)cc1`, the EC50 [13] was > 40 µM (inactive) and the IC50 [14] was 29.4 µM (not active).
In the case of `c1ccc(CSc2nnnn2-c2cccc3ccccc23)nc1`, the EC50 [15] is reported as 1.22 µM (active).
For `Cc1cccc2sc(NC(=O)c3ccc(NS(=O)(=O)c4cccs4)cc3)nc12`, the EC50 [16] was 2.22 µM (active), the EC50 [17] was 3.77 µM (active) and the IC50 [7] was 36.5 µM (active). The IC50 [8] was 7.27 µM (active), the IC50 [9] was 8.6 µM (active) and the IC50 [10] was 11.6 µM (active).
In the case of `Cc1ccc(N=C2C(=O)Nc3ccc(Br)cc32)cc1`, the EC50 [13] is reported as > 40 µM (inactive) and the IC50 [14] is reported as 7.76 µM (active).
With `N#Cc1ccccc1COC(=O)c1ccc2c(c1)OCCO2` the IC50 [7] was 19.9 µM (active), the IC50 [8] was 8.48 µM (active) and the IC50 [9] was 22.5 µM (active). The IC50 [10] was 27.5 µM (active).
In the case of `Nc1ccn(C2OC(COC(=O)C34CC5CC(CC(C5)C3)C4)C(O)C2O)c(=O)n1` (centres undefined), the GI50 [1] is reported as 0.889 µM (active), the GI50 [2] is reported as 4.46 µM (inactive) and the GI50 [3] is reported as 0.506 µM (active). For the same compound, the AC50 [18] was 0.652 µM (active), the AC50 [19] was < 0.26 µM (active) and the AC50 [20] was 36.9 µM (active).
For `COc1ccc([C@H](C)NC[C@H](O)c2ccc(O)c(NC=O)c2)cc1`, the EC50 [15] was 0.0108 µM (active).
For `COc1cc(NC(=O)Nc2ccc(F)cc2)cc2sc(NC(=O)c3ccccc3)nc12`, the IC50 [21] was > 99 µM (inactive), the IC50 [22] was > 99 µM (inactive) and the IC50 [23] was > 99 µM (inactive). For the same compound, the IC50 [24] was > 99 µM (inactive).
For `C(=N\Nc1ccccc1)/c1cn(Cc2ccccc2)c2ccccc12`, the IC50 [21] was > 99 µM (inactive), the IC50 [22] was > 99 µM (inactive) and the IC50 [23] was > 99 µM (inactive). For the same compound, the IC50 [24] was > 99 µM (inactive).
With `CCc1ccc(-c2nc(/C=C/c3ccc(F)cc3)no2)cc1` the IC50 [21] was > 99 µM (inactive), the IC50 [22] was > 99 µM (inactive) and the IC50 [23] was > 99 µM (inactive). The IC50 [24] was > 99 µM (inactive).
In the case of `c1cc2n(n1)CCN2`, the GI50 [1] is reported as 294 µM (inactive), the GI50 [2] is reported as 1150 µM (inactive) and the GI50 [3] is reported as 361 µM (inactive).
